Measurements: PubChem BioAssay (NCI)
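The compound was tested at five concentrations on cells cultured in 96-well plates, with a 48-hour exposure period. At the TGI there is no net growth.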

Columns and labels:
Test in all cases: NCI-60 cell line screen, 48 h
DLD-1 colon = test system: DLD-1 colon
HOP-18 NSCLC = test system: HOP-18 NSCLC
KM20L2 colon = test system: KM20L2 colon
RXF-631 renal = test system: RXF-631 renal
SNB-78 CNS = test system: SNB-78 CNS
XF 498 CNS = test system: XF 498 CNS
DMS 114 small cell lung = test system: DMS 114 small cell lung
BT-549 breast = test system: BT-549 breast
MDA-N = test system: MDA-N

Cc1cc(C)c(-c2noc(-c3ccc(Cl)cc3)c2C2=NCCCN2)c(C)c1
TGI (DLD-1 colon): > 100 µM | TGI (HOP-18 NSCLC): > 100 µM | TGI (KM20L2 colon): 70.6 µM | TGI (RXF-631 renal): > 100 µM | TGI (SNB-78 CNS): > 100 µM | TGI (XF 498 CNS): 54.8 µM

O=C(Nc1ccc(Cl)cc1Cl)OC(Cn1cncn1)c1ccc(Cl)cc1Cl (configuration not stated)
TGI (DLD-1 colon): 35 µM | TGI (DMS 114 small cell lung): 29.8 µM | TGI (HOP-18 NSCLC): 41.5 µM | TGI (KM20L2 colon): 30.3 µM | TGI (RXF-631 renal): 33.2 µM | TGI (SNB-78 CNS): 38.6 µM | TGI (XF 498 CNS): 27.9 µM

O=C1/C(=C/c2ccc(Cl)cc2)CNC/C1=C\c1ccc(Cl)cc1
TGI (BT-549 breast): 8.41 µM | TGI (DLD-1 colon): 6.78 µM | TGI (HOP-18 NSCLC): 18 µM | TGI (MDA-N): 16.1 µM | TGI (RXF-631 renal): 12.5 µM | TGI (SNB-78 CNS): 12.1 µM | TGI (XF 498 CNS): 7.28 µM

Nc1c(Cl)ncnc1NCCCCCCCCCCCCNc1ncnc(Cl)c1N
TGI (DLD-1 colon): > 100 µM | TGI (DMS 114 small cell lung): 2.49 µM | TGI (HOP-18 NSCLC): 83.1 µM | TGI (KM20L2 colon): > 100 µM | TGI (RXF-631 renal): 9.72 µM | TGI (SNB-78 CNS): 3.54 µM | TGI (XF 498 CNS): 3.02 µM

COC(=O)[C@@]12CC(C(C)C)[C@H]3CC(C(=O)C=C1OC)[C@H]32 (some centres not stated)
TGI (DLD-1 colon): > 100 µM | TGI (DMS 114 small cell lung): > 100 µM | TGI (HOP-18 NSCLC): > 100 µM | TGI (KM20L2 colon): > 100 µM | TGI (RXF-631 renal): > 100 µM | TGI (SNB-78 CNS): > 100 µM | TGI (XF 498 CNS): > 100 µM

CCOc1ccccc1N=Nc1c(-c2ccccc2)nn(C(=O)CC(=O)Nc2cccc(C)c2)c1-c1ccccc1
TGI (DLD-1 colon): > 100 µM | TGI (DMS 114 small cell lung): > 100 µM | TGI (HOP-18 NSCLC): > 100 µM | TGI (KM20L2 colon): > 100 µM | TGI (RXF-631 renal): > 100 µM | TGI (SNB-78 CNS): > 100 µM | TGI (XF 498 CNS): > 100 µM

O=C(CCN1CCCCC1)N1CCc2c([nH]c3ccccc23)C1c1cccnc1 (configuration not stated)
TGI (BT-549 breast): > 86.2 µM | TGI (DLD-1 colon): > 100 µM | TGI (DMS 114 small cell lung): > 69.7 µM | TGI (HOP-18 NSCLC): > 100 µM | TGI (KM20L2 colon): > 70.8 µM | TGI (MDA-N): 75 µM | TGI (RXF-631 renal): > 80.7 µM | TGI (SNB-78 CNS): > 100 µM | TGI (XF 498 CNS): 57.3 µM

C/C=C1\CN2CCc3c([nH]c4ccccc34)C2CC1CCO (configuration not stated)
TGI (DLD-1 colon): > 100 µM | TGI (DMS 114 small cell lung): > 100 µM | TGI (HOP-18 NSCLC): > 100 µM | TGI (KM20L2 colon): > 100 µM | TGI (RXF-631 renal): > 100 µM | TGI (SNB-78 CNS): > 100 µM | TGI (XF 498 CNS): > 100 µM
